Measured values from patent US20050019424A1, “Anti-angiogenesis combination therapies comprising pyridazine or pyridine derivatives” (priority 2001, published 2005).

Experiments:
CYP2C9 = target: T1, CYP2C9 (Homo sapiens, UniProt P11712); experiment: Fluorometric cytochrome P450 inhibition assay, CYP2C9; assay type: in vitro ADME; conditions: cDNA-expressed human CYP2C9 Supersomes, substrate DBF, 5 point dose response; read-out: CYP2C9 Inh. IC50
T1 construct: purchased GENTEST Corporation P258
Description: The ability of the compounds described herein to inhibit cytochrome P450 activity was determined in vitro using cDNA-expressed human cytochrome P450 enzymes (Supersomes) obtained from GENTEST Corporation and various fluorescent probe substrates. Fluorometric Cytochrome P450 Inhibition assays were conducted in 96 well micotitre plates as described by GENTEST Corporation, Woburn Mass. […] Compounds were dissolved in 70% DMSO such that the concentration of DMSO in the assay was 0.7%. […] Incubations with known inhibitors of each P450 isoform were included as positive controls. Fluorescence per well was measured using a Spectramax Gemini XS (Molecular Devices) and IC50 values of the compounds tested were determined using the 5 point dose response. The sigmoidal dose response curves were generated by non linear regression using a four parameter logistic equation.

CYP1A2 = target: T2, CYP1A2 (Homo sapiens, UniProt P05177); experiment: biochemical
T2 sequence (P05177 1-516): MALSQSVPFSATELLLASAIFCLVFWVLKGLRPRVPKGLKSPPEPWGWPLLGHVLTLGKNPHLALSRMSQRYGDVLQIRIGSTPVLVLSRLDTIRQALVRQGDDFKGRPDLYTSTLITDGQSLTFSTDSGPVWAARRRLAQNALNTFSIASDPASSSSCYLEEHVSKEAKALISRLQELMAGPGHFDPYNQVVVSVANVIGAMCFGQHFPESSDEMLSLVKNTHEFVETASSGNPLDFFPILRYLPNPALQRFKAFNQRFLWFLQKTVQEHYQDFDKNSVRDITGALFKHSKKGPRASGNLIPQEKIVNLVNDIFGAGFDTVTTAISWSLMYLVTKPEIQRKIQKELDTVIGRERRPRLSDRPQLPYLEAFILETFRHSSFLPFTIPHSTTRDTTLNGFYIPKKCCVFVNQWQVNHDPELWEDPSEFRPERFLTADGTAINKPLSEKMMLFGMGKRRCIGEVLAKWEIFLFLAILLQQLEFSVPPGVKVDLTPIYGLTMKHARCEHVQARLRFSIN
Description: (§1) The ability of the compounds described herein to inhibit cytochrome P450 activity was determined in vitro using cDNA-expressed human cytochrome P450 enzymes (Supersomes) obtained from GENTEST Corporation and various fluorescent probe substrates. Fluorometric Cytochrome P450 Inhibition assays were conducted in 96 well micotitre plates as described by GENTEST Corporation, Woburn Mass. […] Compounds were dissolved in 70% DMSO such that the concentration of DMSO in the assay was 0.7%. Varying concentrations of all test compounds (10 μM, 3 μM, 1 μM, 300 nM and 100 nM) were incubated with Supersomes individually expressing the five principal drug metabolizing cytochrome P450s, CYP1A2, 2C9, 2C19, 2D6, and 3A4 and their respective substrates. […] Incubations with known inhibitors of each P450 isoform were included as positive controls. Fluorescence per well was measured using a Spectramax Gemini XS (Molecular Devices) and IC50 values of the compounds tested were determined using the 5 point dose response. The sigmoidal dose response curves were generated by non linear regression using a four parameter logistic equation.

CYP2C19 = CYP2C19 (Homo sapiens, UniProt P33261); experiment: biochemical
Sequence of CYP2C19 (P33261 whole entry): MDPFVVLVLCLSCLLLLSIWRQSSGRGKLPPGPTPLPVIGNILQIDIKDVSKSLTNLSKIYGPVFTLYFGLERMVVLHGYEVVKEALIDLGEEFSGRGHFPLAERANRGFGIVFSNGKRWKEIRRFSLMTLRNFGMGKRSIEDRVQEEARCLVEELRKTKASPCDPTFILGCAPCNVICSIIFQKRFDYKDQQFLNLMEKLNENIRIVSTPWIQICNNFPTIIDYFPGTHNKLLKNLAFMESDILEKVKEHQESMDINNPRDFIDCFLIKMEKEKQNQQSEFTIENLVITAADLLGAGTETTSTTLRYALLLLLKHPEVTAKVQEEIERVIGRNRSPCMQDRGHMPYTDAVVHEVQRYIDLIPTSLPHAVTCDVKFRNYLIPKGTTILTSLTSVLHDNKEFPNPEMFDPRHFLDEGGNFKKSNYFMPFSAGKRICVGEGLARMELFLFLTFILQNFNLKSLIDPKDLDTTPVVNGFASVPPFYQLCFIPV
Description: as §1

CYP2D6 = CYP2D6 (Homo sapiens, UniProt P10635); experiment: biochemical
Sequence of CYP2D6 (P10635 whole entry): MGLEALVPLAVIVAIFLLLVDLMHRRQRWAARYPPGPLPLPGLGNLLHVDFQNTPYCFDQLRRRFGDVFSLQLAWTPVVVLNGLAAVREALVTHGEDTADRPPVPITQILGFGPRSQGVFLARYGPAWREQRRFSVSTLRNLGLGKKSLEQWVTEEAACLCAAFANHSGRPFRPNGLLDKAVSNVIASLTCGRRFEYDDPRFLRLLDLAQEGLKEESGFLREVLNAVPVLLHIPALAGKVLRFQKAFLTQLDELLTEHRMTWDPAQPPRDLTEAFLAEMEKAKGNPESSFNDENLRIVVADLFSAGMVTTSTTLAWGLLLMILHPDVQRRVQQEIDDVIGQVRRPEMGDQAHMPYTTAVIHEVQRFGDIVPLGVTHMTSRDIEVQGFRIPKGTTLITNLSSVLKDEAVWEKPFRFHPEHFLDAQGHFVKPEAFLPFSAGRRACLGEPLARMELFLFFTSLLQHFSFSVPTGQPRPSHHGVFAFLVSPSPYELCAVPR
Description: as §1

CYP3A4 = CYP3A4 (Homo sapiens, UniProt P08684); experiment: biochemical
Sequence of CYP3A4 (P08684 whole entry): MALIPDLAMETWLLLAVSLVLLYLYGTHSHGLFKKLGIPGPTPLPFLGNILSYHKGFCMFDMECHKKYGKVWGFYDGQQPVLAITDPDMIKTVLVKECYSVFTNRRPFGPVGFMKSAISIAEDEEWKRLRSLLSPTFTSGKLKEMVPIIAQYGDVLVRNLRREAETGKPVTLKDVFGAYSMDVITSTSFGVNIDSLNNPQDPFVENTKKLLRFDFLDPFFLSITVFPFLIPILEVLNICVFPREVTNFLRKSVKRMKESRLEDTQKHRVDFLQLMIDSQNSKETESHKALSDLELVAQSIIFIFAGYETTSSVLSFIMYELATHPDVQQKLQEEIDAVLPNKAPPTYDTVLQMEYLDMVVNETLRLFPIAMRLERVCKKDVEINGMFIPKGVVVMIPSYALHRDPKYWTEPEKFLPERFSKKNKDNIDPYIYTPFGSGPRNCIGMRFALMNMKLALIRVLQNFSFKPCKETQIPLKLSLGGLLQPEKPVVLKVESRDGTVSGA
Description: as §1

T1 sequence (P11712 whole entry): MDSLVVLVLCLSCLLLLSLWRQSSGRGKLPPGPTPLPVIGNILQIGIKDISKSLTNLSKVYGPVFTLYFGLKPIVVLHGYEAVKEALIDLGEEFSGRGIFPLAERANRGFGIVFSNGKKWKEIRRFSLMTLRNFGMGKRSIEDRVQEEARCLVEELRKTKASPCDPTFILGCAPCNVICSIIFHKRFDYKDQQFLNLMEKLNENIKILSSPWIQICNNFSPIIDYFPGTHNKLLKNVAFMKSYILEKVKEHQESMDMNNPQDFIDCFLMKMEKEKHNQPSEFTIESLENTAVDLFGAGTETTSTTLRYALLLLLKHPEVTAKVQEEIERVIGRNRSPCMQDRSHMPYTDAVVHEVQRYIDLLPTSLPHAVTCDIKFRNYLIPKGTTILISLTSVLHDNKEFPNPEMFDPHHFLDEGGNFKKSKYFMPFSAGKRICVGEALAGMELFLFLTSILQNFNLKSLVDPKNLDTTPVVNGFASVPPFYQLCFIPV

IC50 (CYP2C9) [µM]	IC50 (CYP1A2) [µM]	IC50 (CYP2C19) [µM]	IC50 (CYP2D6) [µM]	IC50 (CYP3A4) [µM]	SMILES
1.6	3.8	0.85	10	1.3	CNC(=O)c1cc(Cc2cnc(Nc3ccc(Cl)cc3)c3ccccc23)ccn1
0.68	0.66	1.7	0.78	0.39	Clc1ccc(NC2=NN=C(OCc3ccncc3)C3OC=CC23)cc1 (stereo not shown)
0.29	0.24	0.79	0.33	0.07	Clc1ccc(Nc2nnc(OCc3ccncc3)c3ccccc23)cc1 [WO 98/35958 (Example 50), reference compound]
> 20	> 20	> 20	> 20	> 20	CNC(=O)c1cc(COc2nnc(Nc3ccc(Cl)cc3)c3ccccc23)ccn1
0.11	0.17	0.07	0.21	0.14	Clc1ccc(Nc2ncc(Cc3ccncc3)c3ccccc23)cc1
4.7	3.3	> 20	14	1	NC(=O)c1cc(COC2=NN=C(Nc3ccc(Cl)cc3)C3C=CSC23)ccn1 (stereo not shown)
3.9	> 20	9.9	> 20	> 20	Clc1ccc(Nc2nnc(Nc3ccc4ncsc4c3)c3sccc23)cc1
> 20	4.2	> 20	> 20	1.8	CNC(=O)c1cc(COc2nnc(Nc3ccc(OC)cc3)c3ccoc23)ccn1
> 20	> 20	15	> 20	10	NC(=O)c1cc(Cc2nnc(Nc3ccc(Cl)cc3)c3ccccc23)ccn1
1.9	3.3	1.2	15	1.2	NC(=O)c1cc(Cc2cnc(Nc3ccc(Cl)cc3)c3ccccc23)ccn1
0.46	0.5	7.5	0.4	0.12	Clc1ccc(NC2=NN=C(OCc3ccncc3)C3SC=CC23)cc1 (stereo not shown)
0.65	1.49	0.24	0.33	–	Clc1ccc(Nc2nnc(Cc3ccncc3)c3ccccc23)cc1 [WO 98/35958 (Example 4), reference compound]
> 20	> 20	–	> 20	> 20	CNC(=O)c1cc(COc2nnc(Nc3cccc(C)c3)c3ccsc23)ccn1
5.7	> 20	11	> 20	2.2	CNC(=O)c1cc(Cc2nnc(Nc3ccc(Cl)cc3)c3ccccc23)ccn1
> 20	> 20	> 20	> 20	> 20	CNC(=O)c1cc(COC2=NN=C(Nc3ccc(Cl)cc3)C3C=CSC23)ccn1 (stereo not shown)
> 20	17	> 20	> 20	2.1	NC(=O)c1cc(COC2=NN=C(Nc3ccc(Cl)cc3)C3C=COC23)ccn1 (stereo not shown)
0.95	1.5	5.4	1.3	0.42	NC(=O)c1cc(COc2nnc(Nc3ccc(Cl)cc3)c3ccccc23)ccn1
> 20	3.5	> 20	> 20	11	CN(C)C(=O)c1cc(COC2=NN=C(Nc3ccc(Cl)cc3)C3C=COC23)ccn1 (stereo not shown)
> 20	> 20	> 20	> 20	19	CNC(=O)c1cc(COC2=NN=C(Nc3ccc(Cl)cc3)C3C=COC23)ccn1 (stereo not shown)
> 20	> 20	> 20	> 20	3.3	O=C(NC1CC1)c1cc(COC2=NN=C(Nc3ccc(Cl)cc3)C3C=COC23)ccn1 (stereo not shown)
> 20	11	> 20	> 20	7.6	CNC(=O)c1cc(COc2nnc(Nc3ccc4c(c3)OCC4)c3ccoc23)ccn1
> 20	> 20	–	> 20	> 20	CNC(=O)c1cc(COc2nnc(Nc3ccc(F)cc3)c3ccoc23)ccn1
4	4.5	> 20	> 20	0.48	CNC(=O)c1cc(COc2nnc(Nc3ccc4c(c3)CCC4)c3ccoc23)ccn1
